Laboratory results published in ChEMBL document CHEMBL3616439, “Synthesis, α-glucosidase inhibitory and molecular docking studies of prenylated and geranylated flavones, isoflavones and chalcones” (Bioorg Med Chem Lett, 2015).
pIC50: −log10 of the molar value. The source made the active and inactive calls. No cut-off for these calls is given here.

Experiments:
[1] = Inhibition of baker's yeast alpha-glucosidase using p-nitrophenyl-alpha-D-glucopyranoside as substrate after 30 mins by spectrophotometric analysis; design: species or system Saccharomyces cerevisiae
Saccharomyces cerevisiae [2] = test: Potency index, ratio of acarbose IC50 to compound IC50 for baker's yeast alpha-glucosidase
Saccharomyces cerevisiae [3] = test: Competitive inhibition of baker's yeast alpha-glucosidase using p-nitrophenyl-alpha-D-glucopyranoside as substrate at 1 to 2 uM preincubated for 30 mins followed by substrate addition by Lineweaver-Burk plot analysis
Saccharomyces cerevisiae [4] = test: Competitive inhibition of baker's yeast alpha-glucosidase using p-nitrophenyl-alpha-D-glucopyranoside as substrate at 1.5 to 2 uM preincubated for 30 mins followed by substrate addition by Lineweaver-Burk plot analysis
Saccharomyces cerevisiae [5] = test: Mixed-type inhibition of baker's yeast alpha-glucosidase using p-nitrophenyl-alpha-D-glucopyranoside as substrate at 4 to 6 uM preincubated for 30 mins followed by substrate addition by Lineweaver-Burk plot analysis

SMILES	pIC50 [1]	further results
COc1ccc(-c2coc3c(CC=C(C)C)c(OC)cc(OC)c3c2=O)cc1	< 4.00	–
CC(C)=CCC/C(C)=C/Cc1cc(C(=O)/C=C/c2ccc(O)cc2)c(O)cc1O	4.79	–
CC(C)=CCc1cc(C(=O)/C=C/c2ccc(O)cc2)c(O)c(CC=C(C)C)c1O [MEDICAGENIN]	5.16	–
O=c1c(-c2ccc(O)cc2)coc2cc(O)cc(O)c12 [GENISTEIN]	4.30	–
COc1ccc(-c2coc3c(C/C=C(\C)CCC=C(C)C)c(OC)cc(OC)c3c2=O)cc1	< 4.00	–
CC(C)=CCc1c(O)cc(O)c2c(=O)c(-c3ccc(O)cc3)coc12	< 4.00	–
CC(C)=CCC/C(C)=C/Cc1cc(C(=O)/C=C/c2ccc(O)cc2)c(O)c(C/C=C(\C)CCC=C(C)C)c1O	6.05	Ratio IC50 (Saccharomyces cerevisiae [2]): 50; inhibition (Saccharomyces cerevisiae [3]): Active
CC(C)=CCC/C(C)=C/Cc1c(O)c(CC=C(C)C)cc(C(=O)/C=C/c2ccc(O)cc2)c1O	4.94	–
O=C(/C=C/c1ccc(O)cc1)c1ccc(O)cc1O [ISOLIQUIRITIGENIN]	< 4.00	–
C[C@H]1O[C@H](O[C@H]2[C@H](O)[C@@H](O)[C@@H](O[C@H]3[C@H](O)[C@@H](O)C(O)O[C@@H]3CO)O[C@@H]2CO)[C@H](O)[C@@H](O)[C@@H]1N[C@H]1C=C(CO)[C@@H](O)[C@H](O)[C@H]1O (stereo partly drawn) [ACARBOSE]	4.29	–
CC(C)=CCc1cc(C(=O)/C=C/c2ccc(O)cc2)c(O)cc1O [BROUSSOCHALCONE B]	5.28	–
CC(C)=CCC/C(C)=C/Cc1c(O)cc(O)c2c(=O)c(O)c(-c3ccc(O)c(O)c3)oc12	5.94	inhibition (Saccharomyces cerevisiae [4]): Active
CC(C)=CCc1c(O)cc(O)c2c(=O)c(O)c(-c3ccc(O)c(O)c3)oc12	5.36	–
COc1ccc(-c2coc3c(C/C=C(\C)CCC=C(C)C)c(OC)cc(O)c3c2=O)cc1	< 4.00	–
CC(C)=CCC/C(C)=C/Cc1cc(C(=O)/C=C/c2ccc(O)cc2)c(O)c(CC=C(C)C)c1O	5.05	–
COc1ccc(/C=C/C(=O)c2cc(CC=C(C)C)c(OC)cc2OC)cc1	< 4.00	–
O=c1c(O)c(-c2ccc(O)c(O)c2)oc2cc(O)cc(O)c12 [QUERCETIN]	4.96	–
COc1ccc(-c2coc3c(CC=C(C)C)c(OC)cc(O)c3c2=O)cc1	< 4.00	–
CC(C)=CCC/C(C)=C/Cc1c(O)cc(O)c2c(=O)c(-c3ccc(O)cc3)coc12	5.20	inhibition (Saccharomyces cerevisiae [5]): Active
